In patent EP4768484A1, “HETEROCYCLIC FUSED RING COMPOUND, AND COMPOSITION AND USE THEREOF” (Shenzhen TargetRx, Inc., priority 2023, dated 2025):

Legend:
Format in all cases: cell-based
Ba/F3 parental cells = assay: Cell growth inhibitory activity assay (CellTiter-Glo), Ba/F3 parental cells; settings: Mus musculus, BaF3, 72 h, CTG cell viability, read-out: IC50 Ba/F3 BCR-ABL1 Parental
Summary of the method: (§1)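 Ba/F3 parental cells or Ba/F3 lines lentivirally transduced with WT or mutant BCR-ABL1, seeded overnight then exposed to serially diluted compound 72 h at 37 °C, 5% CO2. Viability by CellTiter-Glo ATP luminescence with a T0 plate; 0.5% DMSO controls; IC50 from four-parameter nonlinear fit.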

Ba/F3 BCR-ABL1 A424T = target: T1, Ba/F3 BCR-ABL1 A424T (Homo sapiens, UniProt P00519+P11274, A424T); assay: Cell growth inhibitory activity assay (CellTiter-Glo), Ba/F3 BCR-ABL1 A424T cells; settings: 72 h, CTG cell viability
T1 construct: BCR (N-terminal fusion partner of the oncoprotein); expressed in transfected cells; host or cells: Ba/F3 (lentiviral transduction, monoclonal line)
Method: (§2) In this assay, the Celltiter-Glo (CTG) kit provided by Promega was used, and it is a homogeneous cell viability assay method. The cell viability of cultured cells was measured by quantifying ATP. K562 cells were purchased from Nanjing Kebai, product number CBP60529; Ba/F3 parental cells were purchased from RIKEN BRC, product number RCB0805; other cells containing BCR-ABL1 WT, BCR-ABL1 T315I, BCR-ABL1 T315M, BCR-ABL1 Y253H/E255K, BCR-ABL1 E255V/T3151, BCR-ABL1 A424T, BCR-ABL1 A337V, BCR-ABL1 P465S, BCR-ABL1 V468F, and BCR-ABL1 I502L were all monoclonal engineered cell lines obtained by transducting Ba/F3 parental cells with the lentivirus plasmids containing WT or corresponding mutated BCR-ABL1.
(§3) The steps of cell viability assay are as follows: • a) Cells in logarithmic growth phase were collected. Cell suspension was prepared and the cells were counted. Concentration of the cells was calculated. • b) The cell suspension was diluted to the required concentration and then added to the middle wells of a 96-well plate, and PBS was added to the edge wells. The wells with no cells and only culture medium were used as blank controls. • c) In addition to the cell plate used for compound analysis, another 96-well plate was prepared as a T0 plate, and 3-6 blank wells and 3-6 cell wells were added. The next day, CTG was used to test the cell viability as the T0 viability value of the cells. • d) The cell plate was incubated at 37 °C in a 5% CO2 incubator overnight. • e) The next day, each concentration of a compound subjected to a gradient dilution was added, and the cell plate was incubated at 37 °C in a 5% CO2 incubator for 72 h. The wells with no compound and only 0.5% DMSO were used as positive controls for cell growth. • f) CTG reagent (CellTiter-Glo kit) was added according to the manufacturer's instructions to test the cell viability value. • g) The plate was read using Biotek cytation3.0 microplate reader and the data were exported. • h) IC50 was calculated using GraphPad Prism 7.0 software.
(§4) The IC50 (half-maximal inhibitory concentration) of the compound was obtained using the following nonlinear fitting formula: Y = Bottom + (Top−Bottom)/(1+10^(∧)((LogIC50−X)*HillSlope)) [formula] • X: Log value of the compound concentration • Y: Inhibition rate (% inhibition) • Top: Maximum response • Bottom: Baseline response • HillSlope: Slope of the curve
(§5) The formula for calculating cell inhibition rate (inhibition rate %) was: [formula]

Ba/F3 BCR-ABL1 I502L = target: T2, Ba/F3 BCR-ABL1 I502L (Homo sapiens, UniProt P00519+P11274, I502L); assay: Cell growth inhibitory activity assay (CellTiter-Glo), Ba/F3 BCR-ABL1 I502L cells; settings: 72 h, CTG cell viability
T2 construct: BCR (N-terminal fusion partner of the oncoprotein); expressed in transfected cells; host or cells: Ba/F3 (lentiviral transduction, monoclonal line)
Method: as §2, §3, §4, §5

K562 cells = assay: Cell growth inhibitory activity assay (CellTiter-Glo), K562 cells; settings: Homo sapiens, 72 h, CTG cell viability
Summary of the method: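 Growth inhibition of human K562 cells, sourced from Nanjing Kebai (CBP60529), was assessed with Promega's CellTiter-Glo kit, which measures viability through ATP quantification. Log-phase cells went into the inner wells of 96-well plates, with PBS in edge wells, incubated overnight at 37 °C and 5% CO2, then exposed to serially diluted compound for 72 h.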

Ba/F3 BCR-ABL1 A337V = target: T3, Ba/F3 BCR-ABL1 A337V (Homo sapiens, UniProt P00519+P11274, A337V); assay: Cell growth inhibitory activity assay (CellTiter-Glo), Ba/F3 BCR-ABL1 A337V cells; settings: 72 h, CTG cell viability
T3 construct: BCR (N-terminal fusion partner of the oncoprotein); expressed in transfected cells; host or cells: Ba/F3 (lentiviral transduction, monoclonal line)
Method: as §2, §3, §4, §5

Ba/F3 BCR-ABL1 WT = target: T4, Ba/F3 BCR-ABL1 WT (Homo sapiens, UniProt P00519+P11274); assay: Cell growth inhibitory activity assay (CellTiter-Glo), Ba/F3 BCR-ABL1 WT cells; settings: 72 h, CTG cell viability
T4 construct: BCR (N-terminal fusion partner of the oncoprotein); expressed in transfected cells; host or cells: Ba/F3 (lentiviral transduction, monoclonal line)
Summary of the method: as §1

[1] = target: T5, Ba/F3 BCR-ABL1 E255V/T315I (Homo sapiens, UniProt P00519+P11274, E255V/T315I); assay: Cell growth inhibitory activity assay (CellTiter-Glo), Ba/F3 BCR-ABL1 E255V/T315I cells; settings: 72 h, CTG cell viability
T5 construct: BCR (N-terminal fusion partner of the oncoprotein); expressed in transfected cells; host or cells: Ba/F3 (lentiviral transduction, monoclonal line)
Method: as §2, §3, §4, §5

Ba/F3 BCR-ABL1 T315I = target: T6, Ba/F3 BCR-ABL1 T315I (Homo sapiens, UniProt P00519+P11274, T315I); assay: Cell growth inhibitory activity assay (CellTiter-Glo), Ba/F3 BCR-ABL1 T315I cells; settings: 72 h, CTG cell viability
T6 construct: BCR (N-terminal fusion partner of the oncoprotein); expressed in transfected cells; host or cells: Ba/F3 (lentiviral transduction, monoclonal line)
Summary of the method: as §1

Ba/F3 BCR-ABL1 T315M = target: T7, Ba/F3 BCR-ABL1 T315M (Homo sapiens, UniProt P00519+P11274, T315M); assay: Cell growth inhibitory activity assay (CellTiter-Glo), Ba/F3 BCR-ABL1 T315M cells; settings: 72 h, CTG cell viability
T7 construct: BCR (N-terminal fusion partner of the oncoprotein); expressed in transfected cells; host or cells: Ba/F3 (lentiviral transduction, monoclonal line)
Summary of the method: as §1

[2] = target: T8, Ba/F3 BCR-ABL1 Y253H/E255K (Homo sapiens, UniProt P00519+P11274, E255K/Y253H); assay: Cell growth inhibitory activity assay (CellTiter-Glo), Ba/F3 BCR-ABL1 Y253H/E255K cells; settings: 72 h, CTG cell viability
T8 construct: BCR (N-terminal fusion partner of the oncoprotein); expressed in transfected cells; host or cells: Ba/F3 (lentiviral transduction, monoclonal line)
Method: as §2, §3, §4, §5

Ba/F3 BCR-ABL1 P465S = target: T9, Ba/F3 BCR-ABL1 P465S (Homo sapiens, UniProt P00519+P11274, P465S); assay: Cell growth inhibitory activity assay (CellTiter-Glo), Ba/F3 BCR-ABL1 P465S cells; settings: 72 h, CTG cell viability
T9 construct: BCR (N-terminal fusion partner of the oncoprotein); expressed in transfected cells; host or cells: Ba/F3 (lentiviral transduction, monoclonal line)
Method: as §2, §3, §4, §5

Ba/F3 BCR-ABL1 V468F = target: T10, Ba/F3 BCR-ABL1 V468F (Homo sapiens, UniProt P00519+P11274, V468F); assay: Cell growth inhibitory activity assay (CellTiter-Glo), Ba/F3 BCR-ABL1 V468F cells; settings: 72 h, CTG cell viability
T10 construct: BCR (N-terminal fusion partner of the oncoprotein); expressed in transfected cells; host or cells: Ba/F3 (lentiviral transduction, monoclonal line)
Method: as §2, §3, §4, §5

Row | IC50 (K562 cells) [nM] | SMILES | IC50 (Ba/F3 parental cells) [nM] | IC50 (Ba/F3 BCR-ABL1 A424T) [nM] | IC50 (Ba/F3 BCR-ABL1 I502L) [nM] | IC50 (Ba/F3 BCR-ABL1 A337V) [nM] | IC50 (Ba/F3 BCR-ABL1 WT) [nM] | IC50 [1] [nM] | IC50 (Ba/F3 BCR-ABL1 T315I) [nM] | IC50 (Ba/F3 BCR-ABL1 T315M) [nM] | IC50 [2] [nM] | IC50 (Ba/F3 BCR-ABL1 P465S) [nM] | IC50 (Ba/F3 BCR-ABL1 V468F) [nM]
1 | ≤ 5 | C[C@@H]1COCc2nc3cc(C(=O)Nc4ccc(OC(F)(F)Cl)cc4)cc(-c4cnc5c(c4)-c4nn(C6CC6)cc4C5)c3n21 [T-57, (R)-N-(4-(chlorodifluoromethoxy)phenyl)-6-(2-cyclopropyl-2,4-dihydropyrazolo[3',4':3,4]cyclopenta[1,2-b]pyridin-7-yl)-4-methyl-3,4-dihydro-1H-benzo[4,5]imidazo[2,1-c][1,4]oxazine-8-carboxamide] | > 1000 | 5 to 50 | 5 to 50 | 5 to 50 | ≤ 5 | ≤ 5 | ≤ 5 | > 1000 | 5 to 50 | 50 to 1000 | 5 to 50
2 | ≤ 5 | C[C@@H]1COCc2nc3cc(C(=O)Nc4ccc(OC(F)(F)Cl)cc4)cc(-c4cnc5c(c4)-c4nn(-c6ncccn6)cc4C5)c3n21 [T-65] | > 1000 | ≤ 5 | ≤ 5 | ≤ 5 | ≤ 5 | ≤ 5 | ≤ 5 | ≤ 5 | ≤ 5 | 5 to 50 | 5 to 50
3 | ≤ 5 | C[C@@H]1COCc2nc3cc(C(=O)Nc4ccc(OC(F)(F)Cl)cc4)cc(-c4cnc5c(c4)-c4nn(-c6cncnc6)cc4C5)c3n21 [T-66, (R)-N-(4-(chlorodifluoromethoxy)phenyl)-4-methyl-6-(2-(pyrimidin-5-yl)-2,4-dihydropyrazolo[3',4':3,4]cyclopenta[1,2-b]pyridin-7-yl)-3,4-dihydro-1H-benzo[4,5]imidazo[2,1-c][1,4]oxazine-8-carboxamide] | > 1000 | 5 to 50 | 50 to 1000 | 50 to 1000 | ≤ 5 | 50 to 1000 | 5 to 50 | > 1000 | 50 to 1000 | 50 to 1000 | 50 to 1000
4 | ≤ 5 | C[C@@H]1COCc2nc3cc(C(=O)Nc4ccc(OC(F)(F)Cl)cc4)cc(-c4cnc5c(c4)-c4c(cnn4-c4nccc(C#N)n4)C5)c3n21 [T-69-A, (R)-N-(4-(chlorodifluoromethoxy)phenyl)-6-(1-(4-cyanopyrimidin-2-yl)-1,4-dihydropyrazolo[3',4':3,4]cyclopenta[1,2-b]pyridin-7-yl)-4-methyl-3,4-dihydro-1H-benzo[4,5]imidazo[2,1-c][1,4]oxazine-8-carboxamide] | > 1000 | 50 to 1000 | 50 to 1000 | 50 to 1000 | ≤ 5 | 5 to 50 | 5 to 50 | 50 to 1000 | 5 to 50 | 50 to 1000 | > 1000
